Converted amounts (≈) assume the structure as drawn.
Experiments:
[1] = tested on: B. subtilis reporter strain PY79(amy::PpanB::lacZ, cat); assay: Minimum inhibitory concentration (MIC) in 96-well microtiter plate, OD600 after about 18 hours; assay type: cell-based; details: Bacillus subtilis
Method: The minimum inhibitory concentrations (MIC) for trimethoprim and sulfamethoxazole were determined for each of the reporter strains. To determine the MIC, a compound of interest (e.g., trimethoprim or sulfamethoxazole) was placed in a 96-well microtiter plate such that the concentration of the compound varies in various wells of the plate (e.g., by using a series of 2-fold dilutions of the compound). Approximately 5,000 cells from a logarithmically-growing culture (e.g., the B. subtilis strain PY79) in Luria broth were added to each well (e.g., in a volume of 50–80 μl). The plate then was incubated at 37° C. for approximately 18 hours. The OD600 was then read to measure cell growth in each well of the plate. The lowest concentration of the compound that leads to complete killing of the culture (i.e., the concentration of compound for which the OD600 nm is equal to a control well that contains only media and the test compound) is deemed the MIC for the particular compound and bacterial strain.

[2] = tested on: panBCD operon (panB promoter); assay: RNA (transcriptional) profiling of panB, panC, panD mRNA levels in treated bacterial cells; assay type: cell-based, B. subtilis; details: LB medium, 37° C.
[3] = tested on: PABA uptake; details: 14C-PABA, Herrington (1994) Anal Biochem 216:427–430; cited from earlier work
[4] = 10 μg/ml trimethoprim, 90 minutes

SMILES	MIC [1]	panD mRNA levels induced ([2]; 0.5 mg/ml sulfamethoxazole, 80 minutes)	PABA uptake [3]	panB mRNA levels induced [2, 4]	panC mRNA levels induced [2, 4]	panD mRNA levels induced [2, 4]
Cc1cc(NS(=O)(=O)c2ccc(N)cc2)no1 [sulfamethoxazole]	500 µg/mL (≈ 1970 µM)	148 fold				
Nc1ccc(S(=O)(=O)Nc2nccs2)cc1 [sulfathiazole]			inhibited			
COc1cc(Cc2cnc(N)nc2N)cc(OC)c1OC [trimethoprim]	3 µg/mL (≈ 10.3 µM)		inhibited	10 fold	54 fold	38 fold

Source: patent US7202023B2 (priority 2000, dated 2007)
